According to paper PMC10584170, “Machine learning-based phenotypic imaging to characterise the targetable biology of Plasmodium falciparum male gametocytes for the development of transmission-blocking antimalarials” (PLOS Pathogens, 2023):
Where two headings read alike, the source gives them in different places.

Assays:
[1] = system: P. berghei ookinete development; assay: P. berghei Ookinete Development Assay (PbODA); type: cell-based, Plasmodium berghei; settings: Mean TOX HepG2 over Pb ODA value; GREEN = >10-fold; RED = <10-fold
Description: (§1) Fig 1 The activity of TCAMS compound identified in the Pf DGFA screen. (A) 85 molecules were confirmed active in the Pf DGFA. 58 were previously identified in one or more transmission-blocking screens. […] No molecule was identified with >4.7-fold greater activity against female gametocytes. Abbreviations (IC50 = concentration giving 50% inhibition, PbODA = P. berghei Ookinete Development Assay, PfDGFA = P. falciparum Dual Gamete Formation Assay, PfFGAA = P. falciparum Female Gametocyte Activation Assay, PfGCT = P. falciparum Gametocyte Viability ATP Assay).

[2] = system: P. falciparum female gametocytes; assay: P. falciparum Dual Gamete Formation Assay (PfDGFA), female readout (Pfs25-positive female gametes); type: cell-based, Plasmodium falciparum NF54; settings: for Selectivity ratio F: HepG2 Tox50 versus female IC50; for inhibition at 2 µM: 24h preincubation with gametocytes
In short: (§2)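 Mature NF54 gametocytes (day 14) were incubated with compound for 24 h at 37°C under 1% O2/3% CO2, then triggered with xanthurenic acid ookinete medium plus Cy3-anti-Pfs25. Exflagellation was imaged by brightfield; after a further 24 h at 28°C, Pfs25-positive female gametes were imaged by fluorescence and counted by automated image analysis.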

[3] = system: HepG2 cells; assay: HepG2 cytotoxicity counter-screen; settings: for Mean TOX: mean of the HepG2 TOX50 values; for Tox50: cytotoxic activity against HepG2 cells
[4] = system: P. falciparum male gametocytes; assay: P. falciparum Dual Gamete Formation Assay (PfDGFA), male readout (exflagellation); type: cell-based, Plasmodium falciparum NF54; settings: for Selectivity Ratio M: HepG2 Tox50 versus male IC50; for inhibition at 2 µM: 24h preincubation with gametocytes
In short: as §2

[5] = system: HepG2 cells; settings: cited from earlier work
[6] = system: P. falciparum female gametocytes; assay: P. falciparum Female Gametocyte Activation Assay (PfFGAA); type: cell-based, Plasmodium falciparum
Description: as §1

[7] = system: P. falciparum female gametocytes; design: method as in Miguel-Blanco et al 2017; settings: ref Miguel-Blanco et al 2017; read-out: Pf female gametogenesis FGAA IC50; cited from earlier work
[8] = this study, read-out: Pf DGFA IC50 FEM
[9] = this study, read-out: Pf DGFA IC50 MALE
[10] = Mean TOX HepG2 over FGAA IC50, GREEN = >10-fold, RED = <10-fold
[11] = Mean TOX HepG2 over DGFA IC50 FEM, GREEN = >10-fold, RED = <10-fold
[12] = Plasmodium falciparum, PfDGFA, 24 h incubation with gametocytes before induction, female gamete readout, read-out: Female IC50
[13] = Mean TOX HepG2 over DGFA IC50 MALE, GREEN = >10-fold, RED = <10-fold
[14] = Plasmodium falciparum, PfDGFA, 24 h incubation with gametocytes before induction, exflagellation readout, read-out: Male IC50
[15] = HepG2 value reported with the FGAA screen, ref Miguel-Blanco et al 2017
[16] = Plasmodium falciparum, 2µM, average of replicates, read-out: Average inhibition female (%)
[17] = Plasmodium falciparum, 2µM, replicate R1, read-out: % inhibition female (individual replicates) R1
[18] = Plasmodium falciparum, 2µM, replicate R2, read-out: % inhibition female (individual replicates) R2
[19] = Plasmodium falciparum, 2µM, replicate R3, read-out: % inhibition female (individual replicates) R3
[20] = Plasmodium falciparum, 2µM, replicate R4, read-out: % inhibition female (individual replicates) R4
[21] = Plasmodium falciparum, 2µM, average of replicates, read-out: Average inhibition male (%)
[22] = Plasmodium falciparum, 2µM, replicate R1, read-out: % inhibition male (individual replicates) R1
[23] = Plasmodium falciparum, 2µM, replicate R2, read-out: % inhibition male (individual replicates) R2
[24] = Plasmodium falciparum, 2µM, replicate R3, read-out: % inhibition male (individual replicates) R3
[25] = Plasmodium falciparum, 2µM, replicate R4, read-out: % inhibition male (individual replicates) R4

Structure (SMILES)	Cytotox ratio Pf Female [2]	IC50 [2, 8]	Mean TOX [3]	Cytotox ratio Pf Male [4]	IC50 [4, 9]	Cytotox ratio Pf FGAA [6, 10]	IC50 [7]	FGAA TOX50 HepG2 [5]	other results
Br.CC[C@H]1CN2CCc3cc(OC)c(OC)cc3[C@@H]2C[C@@H]1C[C@H]1NCCc2c1cc(OC)c(O)c2I [TC07]	20.3	0.29 µM	5.89 µM	7.0	0.84 µM	–	–	–	Cytotox ratio Pb Ookinete [1]: 8736.5; ODA TOX50 HepG2 [5]: 5.433 µM
Cc1ccc(C(C(=O)Nc2ccc(N3CCNCC3)c(Cl)c2)c2ccccc2)cc1 (stereo not shown) [TC10]	1.2	–	11.61 µM	27.6	0.42 µM	17.6	0.66 µM	11.89 µM	–
CCc1cc2c(Sc3nnc(N)s3)ncnc2s1 [TC12]	63.0	0.74 µM	46.65 µM	47.6	0.98 µM	63.9	0.73 µM	32.3 µM	–
CCC1=C[C@@H]2CN(C1)Cc1c([nH]c3ccccc13)[C@@](C(=O)OC)(c1cc3c(cc1OC)N(C)[C@H]1[C@@](O)(C(=O)OC)[C@H](O)[C@]4(CC)C=CCN5CC[C@]31[C@@H]54)C2.O=S(=O)(O)O [TC21]	4.8	–	48.44 µM	4844.5	0.01 µM	–	–	–	Cytotox ratio Pb Ookinete [1]: 80190.9; ODA TOX50 HepG2 [5]: 41.2098 µM
COc1ccc(Nc2ncc(C#N)c(Nc3ccccc3C(N)=O)n2)cc1N1CCN(C)CC1.Cl [TC22]	0.9	–	8.95 µM	89.5	0.1 µM	–	–	–	Cytotox ratio Pb Ookinete [1]: 308001.0; ODA TOX50 HepG2 [5]: 8.318 µM
FC(F)(F)c1ccc2[nH]c(-c3ccc(-c4ccc(CNCCN5CCNCC5)cc4)cc3)nc2c1.O=C(O)C(F)(F)F [TC40]	2.5	6.08 µM	15.09 µM	10.3	1.46 µM	10.7	1.41 µM	16.43 µM	–
O=C1Nc2ccccc2C1=NNC(=S)N1CCOCC1 [TC50]	26.0	1.78 µM	46.30 µM	22.9	2.02 µM	192.9	0.24 µM	–	DGFA Tox50 HepG2 ([3]; HepG2 value reported with the DGFA screen): 46.3 µM
COc1cccc(C23NC(=Nc4nc5ccccc5[nH]4)NC2(c2cccc(OC)c2)NC(=Nc2nc4ccccc4[nH]2)N3)c1 (stereo not shown) [TC54]	28.1	1.3 µM	36.56 µM	19.8	1.85 µM	406.2	0.09 µM	40.74 µM	–
COc1ccc2nc(N=C3NC4(c5ccccc5)NC(=Nc5nc6ccc(OC)cc6[nH]5)NC4(c4ccccc4)N3)[nH]c2c1.O=C(O)C(F)(F)F (stereo not shown) [TC55]	8.2	5.84 µM	48.12 µM	41.5	1.16 µM	401.0	0.12 µM	62.72 µM	–
c1ccc(-c2nc(Nc3nc4ccccc4[nH]3)[nH]c2-c2ccccc2)cc1 [TC56]	13.3	1.02 µM	13.60 µM	14.3	0.95 µM	23.4	0.58 µM	10.98 µM	–
CC(C)(CN)c1nc(-c2ccc(Cl)c(O)c2)c(-c2ccncc2)[nH]1.Cl [TC61]	–	0.27 µM	7.15 µM	–	0.91 µM	–	0.94 µM	2.16 µM	ODA TOX50 HepG2 [5]: 1.66 µM
CCN(CC)CCN(Cc1ccc(-c2ccc(C(F)(F)F)cc2)cc1)C(=O)Cn1cc(Cc2cnn(C)c2)c(=O)nc1/C=C/c1ccc(F)cc1.O=C(O)C(O)C(O)C(=O)O [TC64]	2.1	7.16 µM	15.09 µM	17.8	0.85 µM	12.5	1.21 µM	13.81 µM	–
FC(F)(F)c1ccc2[nH]c(-c3ccc(-c4cccc(CNCCN5CCNCC5)c4)cc3)nc2c1.O=C(O)C(F)(F)F [TC77]	3.2	5.15 µM	16.43 µM	10.0	1.64 µM	9.6	1.71 µM	12.31 µM	–
CC(Nc1cc(-c2ccccn2)nc(-c2ccccn2)n1)c1ccccc1 (stereo not shown) [TCMDC-125420]	–	–	6.79 µM	–	–	–	0.21 µM	–	Cytotox ratio Pf FGAA ([6]; human): 29.4; Selectivity ratio F [2]: 10.4; Cytotox ratio Pf Female [2, 11]: 9.6; inhibition at 2 µM ([2]; Plasmodium falciparum, PfDGFA at 2µM, average of replicates, read-out: Average inhibition female (%)): 56%; inhibition at 2 µM ([2]; Plasmodium falciparum, PfDGFA at 2µM, replicate R1, read-out: % inhibition female (individual replicates) R1): 55.2%; inhibition at 2 µM ([2]; Plasmodium falciparum, PfDGFA at 2µM, replicate R2, read-out: % inhibition female (individual replicates) R2): 57.8%; inhibition at 2 µM ([2]; Plasmodium falciparum, PfDGFA at 2µM, replicate R3, read-out: % inhibition female (individual replicates) R3): 63%; inhibition at 2 µM ([2]; Plasmodium falciparum, PfDGFA at 2µM, replicate R4, read-out: % inhibition female (individual replicates) R4): 48%; IC50 [2, 12]: 0.71 µM; HitlevelF ([2]; number of replicates with >50% inhibition in the female readout, 2µM): 3; Tox50 [3]: 7.4 µM; Selectivity Ratio M [4]: 3.89; Cytotox ratio Pf Male [4, 13]: 3.6; inhibition at 2 µM ([4]; Plasmodium falciparum, PfDGFA at 2µM, average of replicates, read-out: Average inhibition male (%)): 78.7%; inhibition at 2 µM ([4]; Plasmodium falciparum, PfDGFA at 2µM, replicate R1, read-out: % inhibition male (individual replicates) R1): 74.1%; inhibition at 2 µM ([4]; Plasmodium falciparum, PfDGFA at 2µM, replicate R2, read-out: % inhibition male (individual replicates) R2): 77.3%; inhibition at 2 µM ([4]; Plasmodium falciparum, PfDGFA at 2µM, replicate R4, read-out: % inhibition male (individual replicates) R4): 84.5%; IC50 [4, 14]: 1.9 µM; HitlevelM ([4]; number of replicates with >50% inhibition in the male readout, 2µM): 3; FGAA TOX50 HepG2 [5, 15]: 6.18 µM
CN(C)CCOc1ccc(NC(=O)NC(C)(C)c2nc(-c3ccc(Cl)c(O)c3)c(-c3ccncc3)[nH]2)cc1.Cl [TCMDC-140744]	–	–	21.75 µM	–	–	–	0.73 µM	–	Cytotox ratio Pf FGAA ([6]; human): 29.8; Selectivity ratio F [2]: 76.37; Cytotox ratio Pf Female [2, 11]: 57.2; inhibition at 2 µM [2, 16]: 95.5%; inhibition at 2 µM [2, 17]: 91.1%; inhibition at 2 µM [2, 18]: 96.2%; inhibition at 2 µM [2, 19]: 101%; inhibition at 2 µM [2, 20]: 93.9%; IC50 [2, 12]: 0.38 µM; Tox50 [3]: 29.19 µM; Selectivity Ratio M [4]: 89.77; Cytotox ratio Pf Male [4, 13]: 65.9; inhibition at 2 µM [4, 21]: 97.8%; inhibition at 2 µM [4, 22]: 98.2%; inhibition at 2 µM [4, 23]: 101%; inhibition at 2 µM [4, 24]: 95.7%; inhibition at 2 µM [4, 25]: 96.3%; IC50 [4, 14]: 0.33 µM; FGAA TOX50 HepG2 [5, 15]: 14.3 µM
Nc1cc(C=Cc2ccc([N+](=O)[O-])s2)nc2ccccc12 [TCMDC-142296]	–	–	–	–	–	–	–	–	Selectivity ratio F [2]: 1.71; inhibition at 2 µM [2, 16]: 80.5%; inhibition at 2 µM [2, 17]: 71.6%; inhibition at 2 µM [2, 18]: 88.4%; inhibition at 2 µM [2, 19]: 72.1%; inhibition at 2 µM [2, 20]: 89.8%; IC50 [2, 12]: 1.03 µM; Tox50 [3]: 1.76 µM; Selectivity Ratio M [4]: 5.37; inhibition at 2 µM [4, 21]: 100%; inhibition at 2 µM [4, 22]: 99.9%; inhibition at 2 µM [4, 23]: 101%; inhibition at 2 µM [4, 24]: 97.4%; inhibition at 2 µM [4, 25]: 102%; IC50 [4, 14]: 0.33 µM
